Laboratory results: ChEMBL document CHEMBL3797052 (Eur J Med Chem, 2016)

tested on: not listed separately; assay: Antiproliferative activity against human BT549 cells assessed as cell growth at 10^-7 M after 48 hrs by sulforhodamine B assay; format: functional; settings: BT-549, 48 h, read-out: Activity

Compound | growth at 0.1 µM
CNC(=O)c1cc(Oc2ccc3nc(NC(=O)c4cc(C(F)(F)F)cc(C(F)(F)F)c4)sc3c2)ccn1 | 86%

tested on: not listed separately; assay: Antiproliferative activity against human NCI-ADR-RES cells assessed as cell growth at 10^-6 M after 48 hrs by sulforhodamine B assay; format: functional; settings: read-out: Activity

Compound | growth at 1 µM
CNC(=O)c1cc(Oc2ccc3nc(NC(=O)c4cc(C(F)(F)F)cc(C(F)(F)F)c4)sc3c2)ccn1 | 96%

tested on: HT-29; assay: Antiproliferative activity against human HT-29 cells assessed as growth inhibition after 48 hrs by sulforhodamine B assay; format: functional; settings: HT-29, 48 h

Compound | GI50 | LC50 | TGI
CNC(=O)c1cc(Oc2ccc3nc(NC(=O)c4cc(C(F)(F)F)cc(C(F)(F)F)c4)sc3c2)ccn1 | 3.86 µM | 96.9 µM | 16.8 µM

tested on: not listed separately; assay: Antiproliferative activity against human PC3 cells assessed as cell growth at 10^-6 M after 48 hrs by sulforhodamine B assay; format: functional; settings: PC-3, 48 h, read-out: Activity

Compound | growth at 1 µM
CNC(=O)c1cc(Oc2ccc3nc(NC(=O)c4cc(C(F)(F)F)cc(C(F)(F)F)c4)sc3c2)ccn1 | 80%

tested on: not listed separately; assay: Antiproliferative activity against human OVCAR8 cells assessed as cell growth at 10^-7 M after 48 hrs by sulforhodamine B assay; format: functional; settings: OVCAR-8, 48 h, read-out: Activity

Compound | growth at 0.1 µM
CNC(=O)c1cc(Oc2ccc3nc(NC(=O)c4cc(C(F)(F)F)cc(C(F)(F)F)c4)sc3c2)ccn1 | 102%

tested on: MDA-MB-231; assay: Antiproliferative activity against human MDA-MB-231 cells assessed as cell growth at 10^-4 M after 48 hrs by sulforhodamine B assay; format: functional; settings: MDA-MB-231, 48 h, read-out: Activity

Compound | growth at 100 µM
CNC(=O)c1cc(Oc2ccc3nc(NC(=O)c4cc(C(F)(F)F)cc(C(F)(F)F)c4)sc3c2)ccn1 | -67%

tested on: not listed separately; assay: Antiproliferative activity against human SF295 cells assessed as growth inhibition after 48 hrs by sulforhodamine B assay; format: functional; settings: SF-295, 48 h

Compound | GI50 | TGI
CNC(=O)c1cc(Oc2ccc3nc(NC(=O)c4cc(C(F)(F)F)cc(C(F)(F)F)c4)sc3c2)ccn1 | 2.56 µM | 10.5 µM

same assay, conditions: SF-295, 48 h, read-out: LC50 (the source's name)

Compound | CC50
CNC(=O)c1cc(Oc2ccc3nc(NC(=O)c4cc(C(F)(F)F)cc(C(F)(F)F)c4)sc3c2)ccn1 | 49.6 µM

tested on: MCF7; assay: Antiproliferative activity against human MCF7 cells assessed as growth inhibition after 48 hrs by sulforhodamine B assay; format: functional; settings: MCF7, 48 h

Compound | GI50 | TGI
CNC(=O)c1cc(Oc2ccc3nc(NC(=O)c4cc(C(F)(F)F)cc(C(F)(F)F)c4)sc3c2)ccn1 | 3.37 µM | 18 µM

same assay, conditions: MCF7, 48 h, read-out: LC50 (the source's name)

Compound | CC50
CNC(=O)c1cc(Oc2ccc3nc(NC(=O)c4cc(C(F)(F)F)cc(C(F)(F)F)c4)sc3c2)ccn1 | > 100 µM

target: T1, CYP1A2 (Homo sapiens, UniProt P05177); assay: Inhibition of recombinant human CYP1A2 assessed as remaining enzyme activity using CYP1A2 blue as substrate at 10 uM after 5 mins in presence of NADP by fluorescence plate reader analysis; format: ADME; settings: recombinant human CYP1A2, probe CYP1A2 blue, read-out: Activity
T1 sequence (P05177 whole entry): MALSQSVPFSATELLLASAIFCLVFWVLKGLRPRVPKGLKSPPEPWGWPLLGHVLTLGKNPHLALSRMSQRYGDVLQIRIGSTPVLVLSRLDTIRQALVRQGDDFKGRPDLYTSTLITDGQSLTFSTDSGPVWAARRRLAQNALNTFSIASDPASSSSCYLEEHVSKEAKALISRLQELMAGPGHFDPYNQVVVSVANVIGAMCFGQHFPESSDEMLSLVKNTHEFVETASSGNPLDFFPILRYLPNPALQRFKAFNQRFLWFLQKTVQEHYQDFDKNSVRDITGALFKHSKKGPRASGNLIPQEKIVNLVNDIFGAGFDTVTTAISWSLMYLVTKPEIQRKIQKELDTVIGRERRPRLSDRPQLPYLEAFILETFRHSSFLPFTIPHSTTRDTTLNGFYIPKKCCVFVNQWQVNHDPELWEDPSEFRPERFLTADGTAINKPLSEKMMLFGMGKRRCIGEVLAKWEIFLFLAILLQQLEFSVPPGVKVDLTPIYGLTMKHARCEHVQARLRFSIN

Compound | activity at 5 min, 10 µM
CNC(=O)c1cc(Oc2ccc3nc(NC(=O)c4cc(C(F)(F)F)cc(C(F)(F)F)c4)sc3c2)ccn1 | 98.3%

tested on: not listed separately; assay: Antiproliferative activity against human OVCAR4 cells assessed as growth inhibition after 48 hrs by sulforhodamine B assay; format: functional; settings: OVCAR-4, 48 h

Compound | GI50 | TGI
CNC(=O)c1cc(Oc2ccc3nc(NC(=O)c4cc(C(F)(F)F)cc(C(F)(F)F)c4)sc3c2)ccn1 | 3.12 µM | 27.2 µM

same assay, conditions: OVCAR-4, 48 h, read-out: LC50 (the source's name)

Compound | CC50
CNC(=O)c1cc(Oc2ccc3nc(NC(=O)c4cc(C(F)(F)F)cc(C(F)(F)F)c4)sc3c2)ccn1 | > 100 µM

tested on: not listed separately; assay: Antiproliferative activity against human RPMI8226 cells assessed as cell growth at 10^-6 M after 48 hrs by sulforhodamine B assay; format: functional; settings: RPMI-8226, 48 h, read-out: Activity

Compound | growth at 1 µM
CNC(=O)c1cc(Oc2ccc3nc(NC(=O)c4cc(C(F)(F)F)cc(C(F)(F)F)c4)sc3c2)ccn1 | 75%

tested on: NCI-H522; assay: Antiproliferative activity against human NCI-H522 cells assessed as growth inhibition after 48 hrs by sulforhodamine B assay; format: functional; settings: NCI-H522, 48 h

Compound | GI50 | LC50 (concentration killing 50% of cells) | TGI
CNC(=O)c1cc(Oc2ccc3nc(NC(=O)c4cc(C(F)(F)F)cc(C(F)(F)F)c4)sc3c2)ccn1 | 2.82 µM | 64.1 µM | 8.77 µM

tested on: HT-29; assay: Antiproliferative activity against human HT-29 cells assessed as cell growth at 10^-6 M after 48 hrs by sulforhodamine B assay; format: functional; settings: HT-29, 48 h, read-out: Activity

Compound | growth at 1 µM
CNC(=O)c1cc(Oc2ccc3nc(NC(=O)c4cc(C(F)(F)F)cc(C(F)(F)F)c4)sc3c2)ccn1 | 100%

tested on: not listed separately; assay: Antiproliferative activity against human IGROV1 cells assessed as growth inhibition after 48 hrs by sulforhodamine B assay; format: functional; settings: IGROV-1, 48 h

Compound | GI50 | TGI
CNC(=O)c1cc(Oc2ccc3nc(NC(=O)c4cc(C(F)(F)F)cc(C(F)(F)F)c4)sc3c2)ccn1 | 4.26 µM | 27 µM

same assay, conditions: IGROV-1, 48 h, read-out: LC50 (the source's name)

Compound | CC50
CNC(=O)c1cc(Oc2ccc3nc(NC(=O)c4cc(C(F)(F)F)cc(C(F)(F)F)c4)sc3c2)ccn1 | > 100 µM

tested on: not listed separately; assay: Antiproliferative activity against human UO31 cells assessed as growth inhibition after 48 hrs by sulforhodamine B assay; format: functional; settings: UO-31, 48 h

Compound | GI50 | TGI
CNC(=O)c1cc(Oc2ccc3nc(NC(=O)c4cc(C(F)(F)F)cc(C(F)(F)F)c4)sc3c2)ccn1 | 2.19 µM | 8.95 µM

same assay, conditions: UO-31, 48 h, read-out: LC50 (the source's name)

Compound | CC50
CNC(=O)c1cc(Oc2ccc3nc(NC(=O)c4cc(C(F)(F)F)cc(C(F)(F)F)c4)sc3c2)ccn1 | 97 µM

tested on: not listed separately; assay: Antiproliferative activity against human SW620 cells assessed as cell growth at 10^-7 M after 48 hrs by sulforhodamine B assay; format: functional; settings: SW-620, 48 h, read-out: Activity

Compound | growth at 0.1 µM
CNC(=O)c1cc(Oc2ccc3nc(NC(=O)c4cc(C(F)(F)F)cc(C(F)(F)F)c4)sc3c2)ccn1 | 102%

tested on: not listed separately; assay: Antiproliferative activity against human OVCAR4 cells assessed as cell growth at 10^-7 M after 48 hrs by sulforhodamine B assay; format: functional; settings: OVCAR-4, 48 h, read-out: Activity

Compound | growth at 0.1 µM
CNC(=O)c1cc(Oc2ccc3nc(NC(=O)c4cc(C(F)(F)F)cc(C(F)(F)F)c4)sc3c2)ccn1 | 92%

tested on: not listed separately; assay: Antiproliferative activity against human LOXIMVI cells assessed as cell growth at 10^-8 M after 48 hrs by sulforhodamine B assay; format: functional; settings: LOX IMVI, read-out: Activity

Compound | growth at 0.01 µM
CNC(=O)c1cc(Oc2ccc3nc(NC(=O)c4cc(C(F)(F)F)cc(C(F)(F)F)c4)sc3c2)ccn1 | 97%

tested on: not listed separately; assay: Antiproliferative activity against human SNB19 cells assessed as cell growth at 10^-4 M after 48 hrs by sulforhodamine B assay; format: functional; settings: SNB-19, 48 h, read-out: Activity

Compound | growth at 100 µM
CNC(=O)c1cc(Oc2ccc3nc(NC(=O)c4cc(C(F)(F)F)cc(C(F)(F)F)c4)sc3c2)ccn1 | -28%

tested on: not listed separately; assay: Antiproliferative activity against human HL-60(TB) cells assessed as growth inhibition after 48 hrs by sulforhodamine B assay; format: functional; settings: HL-60, 48 h

Compound | GI50 | TGI
CNC(=O)c1cc(Oc2ccc3nc(NC(=O)c4cc(C(F)(F)F)cc(C(F)(F)F)c4)sc3c2)ccn1 | 2.49 µM | 5.11 µM

same assay, conditions: HL-60, 48 h, read-out: LC50 (the source's name)

Compound | CC50
CNC(=O)c1cc(Oc2ccc3nc(NC(=O)c4cc(C(F)(F)F)cc(C(F)(F)F)c4)sc3c2)ccn1 | > 100 µM

tested on: SN12C; assay: Antiproliferative activity against human SN12C cells assessed as cell growth at 10^-6 M after 48 hrs by sulforhodamine B assay; format: functional; settings: read-out: Activity

Compound | growth at 1 µM
CNC(=O)c1cc(Oc2ccc3nc(NC(=O)c4cc(C(F)(F)F)cc(C(F)(F)F)c4)sc3c2)ccn1 | 96%

tested on: MCF7; assay: Antiproliferative activity against human MCF7 cells assessed as cell growth at 10^-6 M after 48 hrs by sulforhodamine B assay; format: functional; settings: MCF7, 48 h, read-out: Activity

Compound | growth at 1 µM
CNC(=O)c1cc(Oc2ccc3nc(NC(=O)c4cc(C(F)(F)F)cc(C(F)(F)F)c4)sc3c2)ccn1 | 87%

tested on: NCI-H460; assay: Antiproliferative activity against human NCI-H460 cells assessed as cell growth at 10^-7 M after 48 hrs by sulforhodamine B assay; format: functional; settings: NCI-H460, 48 h, read-out: Activity

Compound | growth at 0.1 µM
CNC(=O)c1cc(Oc2ccc3nc(NC(=O)c4cc(C(F)(F)F)cc(C(F)(F)F)c4)sc3c2)ccn1 | 105%

tested on: not listed separately; assay: Antiproliferative activity against human SKOV3 cells assessed as cell growth at 10^-6 M after 48 hrs by sulforhodamine B assay; format: functional; settings: SK-OV-3, 48 h, read-out: Activity

Compound | growth at 1 µM
CNC(=O)c1cc(Oc2ccc3nc(NC(=O)c4cc(C(F)(F)F)cc(C(F)(F)F)c4)sc3c2)ccn1 | 90%

tested on: M14; assay: Antiproliferative activity against human M14 cells assessed as growth inhibition after 48 hrs by sulforhodamine B assay; format: functional; settings: M14, 48 h

Compound | GI50 | TGI
CNC(=O)c1cc(Oc2ccc3nc(NC(=O)c4cc(C(F)(F)F)cc(C(F)(F)F)c4)sc3c2)ccn1 | 3.61 µM | 19.5 µM

same assay, conditions: M14, 48 h, read-out: LC50 (the source's name)

Compound | CC50
CNC(=O)c1cc(Oc2ccc3nc(NC(=O)c4cc(C(F)(F)F)cc(C(F)(F)F)c4)sc3c2)ccn1 | > 100 µM

tested on: SK-MEL-28; assay: Antiproliferative activity against human SK-MEL-28 cells assessed as cell growth at 10^-7 M after 48 hrs by sulforhodamine B assay; format: functional; settings: SK-MEL-28, 48 h, read-out: Activity

Compound | growth at 0.1 µM
CNC(=O)c1cc(Oc2ccc3nc(NC(=O)c4cc(C(F)(F)F)cc(C(F)(F)F)c4)sc3c2)ccn1 | 96%

tested on: not listed separately; assay: Antiproliferative activity against human PC3 cells assessed as cell growth at 10^-8 M after 48 hrs by sulforhodamine B assay; format: functional; settings: PC-3, 48 h, read-out: Activity

Compound | growth at 0.01 µM
CNC(=O)c1cc(Oc2ccc3nc(NC(=O)c4cc(C(F)(F)F)cc(C(F)(F)F)c4)sc3c2)ccn1 | 96%

tested on: not listed separately; assay: Antiproliferative activity against human SF539 cells assessed as cell growth at 10^-4 M after 48 hrs by sulforhodamine B assay; format: functional; settings: SF-539, 48 h, read-out: Activity

Compound | growth at 100 µM
CNC(=O)c1cc(Oc2ccc3nc(NC(=O)c4cc(C(F)(F)F)cc(C(F)(F)F)c4)sc3c2)ccn1 | -61%

tested on: not listed separately; assay: Antiproliferative activity against human UACC62 cells assessed as cell growth at 10^-6 M after 48 hrs by sulforhodamine B assay; format: functional; settings: UACC-62, 48 h, read-out: Activity

Compound | growth at 1 µM
CNC(=O)c1cc(Oc2ccc3nc(NC(=O)c4cc(C(F)(F)F)cc(C(F)(F)F)c4)sc3c2)ccn1 | 84%
